Consider seven compounds from patent publication US9745348B2 (The University of Manchester, priority 2011, dated 2017).

Usually IC50 stands for the point on the concentration scale where inhibition reaches its midpoint. Lower therefore signals greater potency. What is called viability is a read-out of living cells in per cent, often relative to untreated cells.

Like-named read-outs stand apart in the source and are kept apart here. Where a SMILES comes first, the peptide text is derived from it. Where no end group is shown, it is not given here. [ ]: non-standard residue; d: D form. Orn = NCCC[C@H](N)C(=O)O

The test system of data set [1] is HeLa and HL60 cancer cell lines. The following applies: 24 h.
Protocol: Antitumor activities of peptides were measured using the 3-(4,5-dimethylthiazol-2-yl)-2,-diphenyl tetrazolium bromide (MTT) assay, and the IC50 value was calculated as the concentration of peptide that induced 50% growth inhibition compared to the untreated control.
HeLa and HL60 cells were seeded in 96-well plates (10^5 cells/well) in a complete medium [Iscove's modified dulbecco's medium (IMDM)] with 10% fetal bovine serum (FBS) for 24 h before peptide treatment. […] Following incubation with peptides, 20 μL of a 5 mg/ml solution MTT reagent was added to each well and incubated for 4 h at 37° C. After removing the supernatant, 150 μL of dimethyl sulfoxide (DMSO) was added to dissolve the formazan crystals that remained in the wells. The absorbance was determined using a microplate ELISA Reader at 570 nm. Wells without cells for blanking the spectrophotometer and the cells without peptides were taken as negative controls.
Data set [2] can be described thus: in vitro. Format: cell-based. The note with it: human, neonatal fibroblasts (HDFn cells). As to the method:
(§1) MTT assay: Cell viability and proliferation is widely assessed by the MTT assay as already described previously.
The fibroblasts cells, Neonatal (HDFn) and Adult (HDFa), were both grown until greater than 80% confluent. The cells were then harvested and seeded into micro well plate at cell densities of 5000 cells/well in a volume […] of medium. After 24 hour incubation the culture medium was replaced with fresh medium containing an appropriate amount of the peptide for investigation.

The nature of data set [3]: MTT viability of fibroblasts over three days. Format: cell-based, human. The note with it: human, adult fibroblasts (HDFa cells). As for the experimental part:
as §1
(§2) The fibroblasts cells, Neonatal (HDFn) and Adult (HDFa), were both grown until greater than 80% confluent. […] After 24 hour incubation the culture medium was replaced with fresh medium containing an appropriate amount of the peptide for investigation.
(§3) The viability of the fibroblasts, Adult (HDFa) and Neonatal (HDFn) cells in the presence of surfactants was tested by MTT assay over three days relative to control wells containing cells only.

In data set [4] the test system is E. coli, (EC) and S. aureus, (SA). The data set can be described thus: Bacterial growth by optical density, statements for both bacteria. The note with it: 1 wt %; for antibacterial activity of surfactant alone: both SA and EC. In kind it is cell-based, Escherichia coli; Staphylococcus aureus. As for the experimental part:
Bacteria E. coli, (EC) and S. aureus, (SA) were grown in LB media at 37° C. with continuous shaking for 24 hours. The bacterial concentration was then adjusted such that the absorbance at 600 (A600) was controlled to ca 0.2 unit. The bacteria suspensions with the peptides were incubated in 96-well tissue culture plates. The total medium volume in each well was […]. […] Controls with media only and media with bacteria only were run alongside the peptide bacteria mixed suspensions. Measurements were taken at time t=0, t=20 and t=72 hours using optical density cell plate reader. The optical density (OD) is representative of the relative amount of bacterial growth within the medium.
Interactions of bacteria E. coli, (EC) and S. aureus, (SA) with surfactants were also studied. The bacteria were grown in LB media at 37° C. with continuous shaking for 24 hours. The bacterial concentration was then adjusted such that the absorbance at 600 (A600) was controlled at ca 0.2 unit. The bacteria suspensions with surfactants were incubated in 96-well tissue culture plates. The total medium volume in each well was 200 μL. Again, surfactant concentrations of 1% were used. Controls with media only and media with bacteria only were run alongside the surfactant-bacteria mixed suspensions. Measurements were taken at time t=0, t=20 and t=72 hours using optical density cell plate reader again.

Data set [5] concerns fibroblasts Adult (HDFa) cells. Nature of the data set: MTT viability of fibroblasts over three days. Format: cell-based, human. As to the method:
as §1, §2, §3

The subject of data set [6] is human red blood cells (hRBCs). The data set can be described thus: Hemolytic activity, hemoglobin release. The note with it: up to 250 μM, 1 h at 37° C. In kind it is cell-based. As for the experimental part: Peptide hemolytic activities were measured by determining hemoglobin release by 4% (v/v) suspensions of fresh human erythrocytes at 540 nm. Fresh human red blood cells (hRBCs) from volunteers were centrifuged and washed three times with PBS (pH7.4). 100 μL of hRBCs suspended in PBS at 8% (v/v) were mixed with 100 µL of different series of 2-fold diluted peptides in a sterile 96-well plate. The plates were incubated for 1 h at 37° C., and centrifuged at 1000 g for 5 min. 100 μL aliquots of the supernatant were transferred to new 96-well plates, and hemoglobin release monitored by measuring supernatant absorbance at 540 nm with a microplate ELISA Reader. As negative and positive controls, hRBCs in PBS and 0.1% Triton X-100 were employed. The hemolysis percentage was calculated using the follow equation: % hemolysis=[(Abs540 nm with peptide−Abs540 nm in PBS)/[(Abs540 nm with 0.1% Triton X-100−Abs540 nm in PBS)×100 Observing Bacterial Membrane Lysis by Fluorescence Microscopy

The test system of data set [7] is E. coli DH5α and B. subtilis 168. Format: cell-based, Escherichia coli; Bacillus subtilis. The following applies: 1 h. As for the experimental part: To determine antibacterial activity of peptides, survival rate curves were constructed. Bacteria (E. coli DH5α or B. subtilis 168) were incubated with peptide at varying peptide concentrations at 37° C. for 1 h. Aliquots of 2 μL were withdrawn, diluted and spread on agar plates. After overnight incubation at 37° C., the surviving bacteria were expressed as the percentage of total cells, and survival curves drawn (FIG. 4). Controls were bacteria without peptide. The minimal inhibitory concentrations (MICs) of each peptide were measured by standard microdilution method. The test was done in sterile 96-well plates in a final volume of 200 μL. Aliquots (100 μL) of a bacterial suspension at 1×10^5 (colony-forming units (CFU)/ml) in culture medium were added to […] peptide solution (2-fold serial dilutions in 10 mM PBS buffer). […] The MIC was defined as the lowest concentration of peptide for which there was no visible growth. Each determination was performed at least three times.

`CC[C@H](C)[C@H](NC(=O)[C@H](CCCN)NC(=O)[C@H](CCCN)NC(=O)[C@@H](NC(=O)[C@@H](NC(=O)[C@H](CCCN)NC(=O)[C@H](CCCN)NC(=O)[C@@H](NC(=O)[C@@H](NC(=O)[C@H](CCCN)NC(=O)[C@H](CCCN)NC(=O)[C@@H](NC(=O)[C@@H](NC(=O)CN)[C@@H](C)CC)[C@@H](C)CC)[C@@H](C)CC)[C@@H](C)CC)[C@@H](C)CC)[C@@H](C)CC)C(N)=O` [GO, G(IIOO)3 I-NH2] (H-GII[Orn][Orn]II[Orn][Orn]II[Orn][Orn]I-NH2): the IC50 in data set [1] fell in the range of 4 to 25 µM. Besides, in data set [2], the viability at 24 h, 5 µM is 95%; the viability at 24 h, 25 µM was 91%; the viability at 24 h, 50 µM was found to be 88%; the viability at 24 h, 100 µM amounted to 83%. In data set [2], the viability at 48 h, 5 µM worked out at 91%; the viability at 48 h, 25 µM was found to be 85%; the viability at 48 h, 50 µM stood at 81%; the viability at 48 h, 100 µM came to 75%. For the same compound, in data set [2], the viability at 72 h, 5 µM is 85%; the viability at 72 h, 25 µM was 80%; the viability at 72 h, 50 µM is 75%; the viability at 72 h, 100 µM was determined as 65%. For the same compound, in data set [3], the viability at 24 h, 5 µM was 101%; the viability at 24 h, 25 µM was determined as 98%; the viability at 24 h, 50 µM stood at 95%; the viability at 24 h, 100 µM turned out to be 88%. Further, in data set [3], the viability at 48 h, 5 µM worked out at 95%; the viability at 48 h, 25 µM turned out to be 92%; the viability at 48 h, 50 µM is 83%; the viability at 48 h, 100 µM was 75%. Further, in data set [3], the viability at 72 h, 5 µM is 90%; the viability at 72 h, 25 µM was 82%; the viability at 72 h, 50 µM turned out to be 78%; the viability at 72 h, 100 µM was found to be 70%.

As for `CCCCCCCCCCCC[N+](C)(C)C.[Br-]` [Helix C12TAB, Dodecyl trimethylammonium bromide], in data set [4] (72 hours), the “growth of bacteria after 72 hours” value is “no growth of bacteria”. For the same compound, the “antibacterial activity of surfactant alone” value (“antibacterial activity” for short) in data set [4] is recorded as “significant antibacterial activity”. Further, the “MTT results (relative MTT reading)” value was 0.00 in data set [5] (HDFa, surfactant 1%, Day 1); 0.00 in data set [5] (HDFa, surfactant 1%, Day 2); 0.00 in data set [5] (HDFa, surfactant 1%, Day 3).

GIIKKI-NH2 [G(IIKK)I-NH2]: the hemolytic activity result in data set [6] was “inactive”.

For “GIIKKIIKKIIKKIIKKI-NH2 [Helix G4, G(IIKK)4 I-NH2]”, the IC50 in data set [1] fell in the range of 4 to 25 µM. Besides, the “MICs (minimum inhibitory concentrations)” value in data set [7] is 0.5 to 8 µM. In data set [2], the viability at 24 h, 5 µM came to 95%; the viability at 24 h, 25 µM was 85%; the viability at 24 h, 50 µM amounted to 81%; the viability at 24 h, 100 µM was determined as 73%. Moreover, in data set [2], the viability at 48 h, 5 µM was 92%; the viability at 48 h, 25 µM amounted to 77%; the viability at 48 h, 50 µM turned out to be 71%; the viability at 48 h, 100 µM turned out to be 65%. Moreover, in data set [2], the viability at 72 h, 5 µM is 79%; the viability at 72 h, 25 µM amounted to 74%; the viability at 72 h, 50 µM was found to be 65%; the viability at 72 h, 100 µM is 53%. For the same compound, in data set [3], the viability at 24 h, 5 µM turned out to be 90%; the viability at 24 h, 25 µM came to 87%; the viability at 24 h, 50 µM was found to be 85%; the viability at 24 h, 100 µM is 81%. Moreover, in data set [3], the viability at 48 h, 5 µM amounted to 84%; the viability at 48 h, 25 µM was determined as 81%; the viability at 48 h, 50 µM turned out to be 78%; the viability at 48 h, 100 µM was determined as 70%. In data set [3], the viability at 72 h, 5 µM came to 81%; the viability at 72 h, 25 µM was found to be 78%; the viability at 72 h, 50 µM came to 65%; the viability at 72 h, 100 µM is 55%.

“GKIKKIIKKIIKII-NH2 [GKI, GKI(KKII)2 KII-NH2]” came in with an IC50 in data set [1] of 4 to 25 µM. In addition, in data set [2], the viability at 24 h, 5 µM came to 95%; the viability at 24 h, 25 µM is 87%; the viability at 24 h, 50 µM stood at 81%; the viability at 24 h, 100 µM was 69%. Also, in data set [2], the viability at 48 h, 5 µM was determined as 90%; the viability at 48 h, 25 µM came to 83%; the viability at 48 h, 50 µM turned out to be 75%; the viability at 48 h, 100 µM came to 60%. For the same compound, in data set [2], the viability at 72 h, 5 µM was 88%; the viability at 72 h, 25 µM was determined as 78%; the viability at 72 h, 50 µM was found to be 71%; the viability at 72 h, 100 µM was found to be 55%. Besides, in data set [3], the viability at 24 h, 5 µM was determined as 95%; the viability at 24 h, 25 µM was found to be 93%; the viability at 24 h, 50 µM stood at 90%; the viability at 24 h, 100 µM is 85%. For the same compound, in data set [3], the viability at 48 h, 5 µM worked out at 82%; the viability at 48 h, 25 µM was found to be 81%; the viability at 48 h, 50 µM was determined as 80%; the viability at 48 h, 100 µM was determined as 75%. Besides, in data set [3], the viability at 72 h, 5 µM stood at 81%; the viability at 72 h, 25 µM was 75%; the viability at 72 h, 50 µM amounted to 71%; the viability at 72 h, 100 µM came out at 70%.

For the compound cocamidopropyl aetaine [Tt], the “antibacterial activity” value in data set [4] is listed as “some antibacterial influence”.

sodium lauryl ether sulphate [SLES]: in data set [4], the “antibacterial activity” value is “some antibacterial influence”. Besides, the “MTT results (relative MTT reading)” value in data set [5] stood at 0.00.
